What was measured:
[1] = tested on: breast cancer cell line T-47D; assay: Cell growth assay with breast cancer cell line T-47D; assay type: cell-based; conditions: Homo sapiens, T47D, 72 h, T-47D cells, PrestoBlue Cell Viability reagent, read-out: IC50 inhibition of cell growth
Description: […] of the complete medium was then gently dispersed over the surface of the cell layer for several times. The cell concentration was adjusted to 1×10^4 cells/mL with the complete medium. A 100 μL aliquot of the cell suspension was added to the well of a 96-well plate, and the plate was incubated overnight at 37° C. under 5% CO2 with saturated humidity. On the next day, the medium in each well was aspirated and replaced with a 100 μL aliquot of pre-warmed complete medium at 37° C. in the presence or absence of the test compounds at various concentrations from 0-100 μM. The test compounds were dissolved in DMSO, and the final DMSO concentration in the cell culture was no more than 1%. The plate was incubated for 72 hours at 37° C. under 5% CO2 with saturated humidity. At end of the cell culture a 10 μL aliquot of PrestoBlue® Cell Viability reagent (ThermoFisher Scientific) was added into the well and the plate was incubated at 37° C. for 30 min. The absorption at 570 and 600 nm were measured with a SpectraMax Microplate reader (Molecular Devices), The absorbance at […] was normalized to that at 600 nm.

LYNa = target: T1, LYNa (Homo sapiens, UniProt P07948); assay: Off-chip Mobility Shift Assay (MSA) kinase inhibition; assay type: biochemical; conditions: for inhibition at 0.1 µM: inhibitor concentration 0.1 μM
T1 construct: purchased Carna Biosciences
T1 sequence (P07948 whole entry): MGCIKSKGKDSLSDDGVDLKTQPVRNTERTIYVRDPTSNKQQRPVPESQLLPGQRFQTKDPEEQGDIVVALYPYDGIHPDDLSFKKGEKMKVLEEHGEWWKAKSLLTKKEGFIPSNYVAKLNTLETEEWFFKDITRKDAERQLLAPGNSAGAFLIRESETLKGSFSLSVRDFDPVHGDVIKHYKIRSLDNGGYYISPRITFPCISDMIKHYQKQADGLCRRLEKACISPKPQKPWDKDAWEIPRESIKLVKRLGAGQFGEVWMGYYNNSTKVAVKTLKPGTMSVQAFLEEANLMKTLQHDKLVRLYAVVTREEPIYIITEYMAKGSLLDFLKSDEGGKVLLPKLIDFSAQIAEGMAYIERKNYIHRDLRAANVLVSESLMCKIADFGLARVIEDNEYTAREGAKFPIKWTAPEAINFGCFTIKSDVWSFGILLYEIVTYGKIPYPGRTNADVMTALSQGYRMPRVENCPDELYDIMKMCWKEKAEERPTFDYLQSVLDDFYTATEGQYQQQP
Description: (§1) Off-chip Mobility Shift Assay (MSA) by Cama Biosciences, Inc (Natick, Mass.) a used for measuring the kinase activity and inhibition. • 1) The 5 μL of x4 compound solution, 5 μL of x4 Substrate/ATP/Metal solution, and 10 μL of x2 kinase solution were prepared with assay buffer (20 mM HEPES, 0.01% Triton X100, 2 mM DTT, pH 7.5) and mixed and incubated in a well of polypropylene 384 well microplate for 1 or 5 hour(s)* at room temperature.

AurB = target: T2, AurB (Homo sapiens, UniProt Q96GD4); assay: as above; assay type: biochemical; conditions: inhibitor concentration 0.1 μM
T2 construct: purchased Carna Biosciences, Inc
Description: as §1

LCK = target: T3, LCK (Homo sapiens, UniProt P06239); assay: as above; assay type: biochemical; conditions: for inhibition at 0.1 µM: inhibitor concentration 0.1 μM
T3 construct: purchased Carna Biosciences
T3 sequence (P06239 whole entry): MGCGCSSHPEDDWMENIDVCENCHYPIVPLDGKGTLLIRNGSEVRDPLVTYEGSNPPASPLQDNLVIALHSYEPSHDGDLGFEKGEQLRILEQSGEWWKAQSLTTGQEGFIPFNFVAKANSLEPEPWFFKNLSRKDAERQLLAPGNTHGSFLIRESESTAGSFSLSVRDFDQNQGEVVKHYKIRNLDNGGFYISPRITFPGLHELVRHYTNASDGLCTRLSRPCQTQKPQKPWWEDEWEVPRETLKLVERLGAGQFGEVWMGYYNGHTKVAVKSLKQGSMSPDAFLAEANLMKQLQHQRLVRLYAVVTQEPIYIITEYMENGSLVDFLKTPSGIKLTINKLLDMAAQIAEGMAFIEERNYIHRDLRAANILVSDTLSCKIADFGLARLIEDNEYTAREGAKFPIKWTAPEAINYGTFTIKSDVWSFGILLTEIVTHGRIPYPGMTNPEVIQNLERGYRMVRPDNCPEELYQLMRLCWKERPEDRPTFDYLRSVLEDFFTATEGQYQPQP
Description: as §1

SRC = target: T4, SRC (Homo sapiens, UniProt P12931); assay: as above; assay type: biochemical; conditions: for inhibition at 0.1 µM: inhibitor concentration 0.1 μM
T4 construct: purchased Carna Biosciences
Description: as §1

AKT3 = target: T5, AKT3 (Homo sapiens, UniProt Q9Y243); assay: as above; assay type: biochemical; conditions: inhibitor concentration 0.1 μM
T5 construct: purchased Carna Biosciences
Description: as §1

SRM = target: T6, SRM (Homo sapiens, UniProt Q9H3Y6); assay: as above; assay type: biochemical; conditions: for inhibition at 0.1 µM: inhibitor concentration 0.1 μM
T6 construct: purchased Carna Biosciences
Description: as §1

JNK2 = target: T7, JNK2 (Homo sapiens, UniProt P45984); assay: as above; assay type: biochemical; conditions: inhibitor concentration 0.1 μM
T7 construct: purchased Carna Biosciences
Description: as §1

JNK1 = target: T8, JNK1 (Homo sapiens, UniProt P45983); assay: as above; assay type: biochemical; conditions: inhibitor concentration 0.1 μM
T8 construct: purchased Carna Biosciences
Description: as §1

ALK = target: T9, ALK (Homo sapiens, UniProt Q9UM73); assay: as above; assay type: biochemical; conditions: for inhibition at 0.1 µM: inhibitor concentration 0.1 μM
T9 construct: purchased Carna Biosciences
Description: as §1

MLK1 = target: T10, MLK1 (Homo sapiens, UniProt P80192); assay: as above; assay type: biochemical; conditions: inhibitor concentration 0.1 μM
T10 construct: purchased Carna Biosciences
Description: as §1

AKT2 = target: T11, AKT2 (Homo sapiens, UniProt P31751); assay: as above; assay type: biochemical; conditions: inhibitor concentration 0.1 μM
T11 construct: purchased Carna Biosciences
Description: as §1

ROS = target: T12, ROS (Homo sapiens, UniProt P08922); assay: as above; assay type: biochemical; conditions: inhibitor concentration 0.1 μM
T12 construct: purchased Carna Biosciences
T12 sequence (P08922 28-2347): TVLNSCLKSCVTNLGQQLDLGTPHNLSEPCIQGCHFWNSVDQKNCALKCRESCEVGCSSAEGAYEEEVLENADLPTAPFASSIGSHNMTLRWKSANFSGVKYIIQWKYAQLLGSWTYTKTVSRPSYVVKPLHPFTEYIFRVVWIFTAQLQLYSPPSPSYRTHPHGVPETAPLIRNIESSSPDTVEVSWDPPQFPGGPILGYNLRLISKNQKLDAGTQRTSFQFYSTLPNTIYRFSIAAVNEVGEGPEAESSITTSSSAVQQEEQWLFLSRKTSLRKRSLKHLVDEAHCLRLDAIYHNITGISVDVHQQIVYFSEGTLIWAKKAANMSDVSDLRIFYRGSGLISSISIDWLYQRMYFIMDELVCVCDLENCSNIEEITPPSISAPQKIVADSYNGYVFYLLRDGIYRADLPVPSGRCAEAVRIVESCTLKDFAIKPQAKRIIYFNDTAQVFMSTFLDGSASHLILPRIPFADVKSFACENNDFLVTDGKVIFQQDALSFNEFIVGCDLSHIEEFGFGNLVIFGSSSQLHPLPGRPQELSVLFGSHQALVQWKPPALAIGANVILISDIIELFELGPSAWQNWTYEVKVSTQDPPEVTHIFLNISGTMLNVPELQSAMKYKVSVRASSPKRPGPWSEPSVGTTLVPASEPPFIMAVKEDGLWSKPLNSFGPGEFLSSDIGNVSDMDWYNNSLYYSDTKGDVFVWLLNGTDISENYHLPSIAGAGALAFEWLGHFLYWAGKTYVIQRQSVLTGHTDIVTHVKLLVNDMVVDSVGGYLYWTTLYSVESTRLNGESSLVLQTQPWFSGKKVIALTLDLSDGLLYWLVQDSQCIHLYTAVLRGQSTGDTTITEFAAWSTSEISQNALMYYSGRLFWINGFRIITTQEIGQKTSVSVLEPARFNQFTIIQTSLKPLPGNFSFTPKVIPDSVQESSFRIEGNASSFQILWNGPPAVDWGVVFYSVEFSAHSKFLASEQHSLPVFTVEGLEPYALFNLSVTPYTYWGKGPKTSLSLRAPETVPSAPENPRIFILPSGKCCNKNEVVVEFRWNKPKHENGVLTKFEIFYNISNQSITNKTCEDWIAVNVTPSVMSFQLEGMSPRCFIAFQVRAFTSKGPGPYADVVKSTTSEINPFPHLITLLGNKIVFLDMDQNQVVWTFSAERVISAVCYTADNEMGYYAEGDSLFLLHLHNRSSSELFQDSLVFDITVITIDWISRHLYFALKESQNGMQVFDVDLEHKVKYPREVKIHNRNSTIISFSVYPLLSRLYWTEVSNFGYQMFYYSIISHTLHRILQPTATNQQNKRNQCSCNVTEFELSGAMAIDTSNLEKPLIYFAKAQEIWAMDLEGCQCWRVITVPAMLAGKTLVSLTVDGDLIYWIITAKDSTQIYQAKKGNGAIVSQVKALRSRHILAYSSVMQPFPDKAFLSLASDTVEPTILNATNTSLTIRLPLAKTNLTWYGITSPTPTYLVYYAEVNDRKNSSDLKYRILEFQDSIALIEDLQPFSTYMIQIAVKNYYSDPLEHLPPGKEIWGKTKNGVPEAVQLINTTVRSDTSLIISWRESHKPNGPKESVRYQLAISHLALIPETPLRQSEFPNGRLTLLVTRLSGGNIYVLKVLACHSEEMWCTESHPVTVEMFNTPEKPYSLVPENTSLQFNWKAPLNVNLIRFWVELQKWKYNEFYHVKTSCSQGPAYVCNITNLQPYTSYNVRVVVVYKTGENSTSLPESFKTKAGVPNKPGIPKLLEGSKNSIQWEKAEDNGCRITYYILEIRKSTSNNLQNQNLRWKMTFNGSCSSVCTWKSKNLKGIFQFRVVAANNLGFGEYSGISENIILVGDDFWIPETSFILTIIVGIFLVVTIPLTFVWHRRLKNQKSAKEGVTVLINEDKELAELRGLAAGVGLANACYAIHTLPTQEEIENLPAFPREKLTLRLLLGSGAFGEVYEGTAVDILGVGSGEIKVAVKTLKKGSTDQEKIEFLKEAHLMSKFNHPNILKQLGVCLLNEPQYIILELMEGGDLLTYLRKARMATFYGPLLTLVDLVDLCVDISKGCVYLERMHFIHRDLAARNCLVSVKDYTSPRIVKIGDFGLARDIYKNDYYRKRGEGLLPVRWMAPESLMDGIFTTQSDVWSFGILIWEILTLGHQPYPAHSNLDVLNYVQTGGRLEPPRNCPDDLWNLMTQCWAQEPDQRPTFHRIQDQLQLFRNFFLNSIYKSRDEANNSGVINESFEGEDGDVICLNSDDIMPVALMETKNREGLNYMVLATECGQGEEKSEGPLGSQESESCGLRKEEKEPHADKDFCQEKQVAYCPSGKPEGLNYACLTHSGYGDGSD
Description: as §1

MAP2K2 = target: T13, MAP2K2 (Homo sapiens, UniProt P36507); assay: as above; assay type: biochemical; conditions: for inhibition at 0.1 µM: inhibitor concentration 0.1 μM
T13 construct: purchased Carna Biosciences
T13 sequence (P36507 whole entry): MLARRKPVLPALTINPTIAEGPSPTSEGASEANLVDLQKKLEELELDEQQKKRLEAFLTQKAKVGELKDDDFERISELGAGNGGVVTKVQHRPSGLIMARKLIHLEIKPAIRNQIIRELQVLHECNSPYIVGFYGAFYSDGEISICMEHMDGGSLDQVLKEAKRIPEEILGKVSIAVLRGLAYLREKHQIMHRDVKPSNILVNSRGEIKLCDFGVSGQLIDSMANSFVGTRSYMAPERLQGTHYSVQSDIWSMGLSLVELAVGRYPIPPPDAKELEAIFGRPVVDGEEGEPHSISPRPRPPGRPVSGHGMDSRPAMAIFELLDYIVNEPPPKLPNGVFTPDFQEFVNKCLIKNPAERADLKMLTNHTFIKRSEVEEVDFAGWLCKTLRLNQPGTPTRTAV
Description: as §1

Erk2 = target: T14, Erk2 (Homo sapiens, UniProt P28482); assay: as above; assay type: biochemical; conditions: for inhibition at 0.1 µM: inhibitor concentration 0.1 μM
T14 construct: purchased Carna Biosciences
T14 sequence (P28482 whole entry): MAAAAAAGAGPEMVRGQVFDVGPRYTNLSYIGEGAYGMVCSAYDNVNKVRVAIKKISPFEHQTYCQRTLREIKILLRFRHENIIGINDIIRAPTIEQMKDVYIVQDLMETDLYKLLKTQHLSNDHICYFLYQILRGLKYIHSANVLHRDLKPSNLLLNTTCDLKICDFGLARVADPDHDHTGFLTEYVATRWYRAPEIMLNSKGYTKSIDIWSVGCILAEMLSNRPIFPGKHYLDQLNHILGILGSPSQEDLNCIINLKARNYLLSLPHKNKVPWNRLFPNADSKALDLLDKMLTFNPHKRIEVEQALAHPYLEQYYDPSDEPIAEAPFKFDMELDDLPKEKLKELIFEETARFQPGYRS
Description: as §1

KIT(V560G) = target: T15, KIT(V560G) (Homo sapiens, UniProt P10721, V560G); assay: as above; assay type: biochemical; conditions: for inhibition at 0.1 µM: inhibitor concentration 0.1 μM
T15 construct: purchased Carna Biosciences
T15 sequence (P10721 26-976 V560G): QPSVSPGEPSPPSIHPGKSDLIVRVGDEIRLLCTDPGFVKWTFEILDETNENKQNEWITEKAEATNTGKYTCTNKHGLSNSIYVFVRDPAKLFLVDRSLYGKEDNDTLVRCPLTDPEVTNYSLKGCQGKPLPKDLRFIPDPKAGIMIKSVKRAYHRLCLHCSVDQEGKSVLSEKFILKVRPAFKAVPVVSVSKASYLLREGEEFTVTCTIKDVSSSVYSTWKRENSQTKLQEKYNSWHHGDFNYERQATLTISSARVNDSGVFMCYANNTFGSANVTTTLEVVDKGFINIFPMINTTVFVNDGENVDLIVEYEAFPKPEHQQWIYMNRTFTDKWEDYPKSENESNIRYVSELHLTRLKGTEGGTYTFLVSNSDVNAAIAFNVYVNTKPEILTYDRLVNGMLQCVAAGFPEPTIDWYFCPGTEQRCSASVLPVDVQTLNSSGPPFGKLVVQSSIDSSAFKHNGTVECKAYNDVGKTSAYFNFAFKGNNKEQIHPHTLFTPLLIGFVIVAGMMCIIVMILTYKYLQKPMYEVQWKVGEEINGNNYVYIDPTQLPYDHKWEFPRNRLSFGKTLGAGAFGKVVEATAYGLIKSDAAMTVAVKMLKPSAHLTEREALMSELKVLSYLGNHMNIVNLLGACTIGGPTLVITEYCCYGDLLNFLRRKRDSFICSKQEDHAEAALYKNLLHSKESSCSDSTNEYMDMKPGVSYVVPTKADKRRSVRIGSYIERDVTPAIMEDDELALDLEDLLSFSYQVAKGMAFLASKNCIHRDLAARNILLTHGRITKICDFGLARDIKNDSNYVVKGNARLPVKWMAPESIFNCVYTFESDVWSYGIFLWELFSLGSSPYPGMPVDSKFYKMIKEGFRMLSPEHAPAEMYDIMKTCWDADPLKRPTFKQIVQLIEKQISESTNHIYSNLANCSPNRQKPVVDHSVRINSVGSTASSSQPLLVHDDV
Description: as §1

RON = target: T16, RON (Homo sapiens, UniProt Q04912); assay: as above; assay type: biochemical; conditions: inhibitor concentration 0.1 μM
T16 construct: purchased Carna Biosciences
Description: as §1

AXL = target: T17, AXL (Homo sapiens, UniProt P30530); assay: as above; assay type: biochemical; conditions: inhibitor concentration 0.1 μM
T17 construct: purchased Carna Biosciences
T17 sequence (P30530 26-894): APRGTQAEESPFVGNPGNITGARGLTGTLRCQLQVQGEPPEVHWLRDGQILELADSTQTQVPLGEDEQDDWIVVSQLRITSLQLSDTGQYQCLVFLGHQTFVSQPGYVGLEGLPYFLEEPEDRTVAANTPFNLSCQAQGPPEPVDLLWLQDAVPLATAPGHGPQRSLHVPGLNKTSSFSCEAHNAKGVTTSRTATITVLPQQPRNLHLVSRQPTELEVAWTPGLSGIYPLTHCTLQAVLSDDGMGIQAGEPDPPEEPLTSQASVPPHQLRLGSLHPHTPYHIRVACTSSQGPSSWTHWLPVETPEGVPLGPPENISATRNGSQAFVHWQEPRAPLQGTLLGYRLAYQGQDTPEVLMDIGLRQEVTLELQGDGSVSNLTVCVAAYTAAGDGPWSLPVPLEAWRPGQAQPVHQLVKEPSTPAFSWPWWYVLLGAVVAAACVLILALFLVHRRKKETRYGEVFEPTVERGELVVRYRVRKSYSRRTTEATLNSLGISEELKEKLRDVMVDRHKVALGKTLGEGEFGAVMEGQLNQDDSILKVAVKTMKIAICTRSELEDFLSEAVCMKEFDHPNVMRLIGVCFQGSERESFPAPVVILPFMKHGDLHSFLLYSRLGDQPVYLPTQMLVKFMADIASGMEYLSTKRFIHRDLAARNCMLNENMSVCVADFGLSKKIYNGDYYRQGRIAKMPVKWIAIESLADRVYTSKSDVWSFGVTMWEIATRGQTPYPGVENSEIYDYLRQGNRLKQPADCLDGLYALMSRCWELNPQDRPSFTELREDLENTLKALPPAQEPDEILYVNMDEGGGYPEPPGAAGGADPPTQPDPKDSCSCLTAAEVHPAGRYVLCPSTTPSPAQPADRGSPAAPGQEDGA
Description: as §1

KIT(T670I) = target: T18, KIT(T670I) (Homo sapiens, UniProt P10721, T670I); assay: as above; assay type: biochemical; conditions: for inhibition at 0.1 µM: inhibitor concentration 0.1 μM
T18 construct: purchased Carna Biosciences
T18 sequence (P10721 26-976 T670I): as the sequence (P10721 26-976 V560G) above, with G535V, T645I counted along it
Description: as §1

EGFR = target: T19, EGFR (Homo sapiens, UniProt P00533); assay: as above; assay type: biochemical; conditions: for inhibition at 0.1 µM: inhibitor concentration 0.1 μM
T19 construct: purchased Carna Biosciences
Description: as §1

ABL = target: T20, ABL (Homo sapiens, UniProt P00519); assay: as above; assay type: biochemical; conditions: for inhibition at 0.1 µM: inhibitor concentration 0.1 μM
T20 construct: purchased Carna Biosciences
Description: as §1

[2] = inhibitor concentration 0.01 μM
[3] = inhibitor concentration 0.01 μM, 0.01 µM

| SMILES | IC50 [1] | inhibition at 0.1 µM (LYNa) | inhibition at 0.1 µM (AurB) | inhibition at 0.1 µM (LCK) | inhibition at 0.1 µM (SRC) | inhibition at 0.1 µM (AKT3) | inhibition at 0.1 µM (SRM) | inhibition at 0.1 µM (JNK2) | inhibition at 0.1 µM (JNK1) | inhibition at 0.1 µM (ALK) | inhibition at 0.1 µM (MLK1) | inhibition at 0.1 µM (AKT2) | inhibition at 0.1 µM (ROS) | inhibition at 0.1 µM (MAP2K2) | inhibition at 0.1 µM (Erk2) | inhibition at 0.1 µM (KIT(V560G)) | inhibition at 0.1 µM (RON) | inhibition at 0.1 µM (AXL) | inhibition at 0.1 µM (KIT(T670I)) | inhibition at 0.1 µM (EGFR) | other results |
| --- | --- | --- | --- | --- | --- | --- | --- | --- | --- | --- | --- | --- | --- | --- | --- | --- | --- | --- | --- | --- | --- |
| O=C(c1c(F)ccc(NS(=O)(=O)CC(O)CO)c1F)c1c[nH]c2ncc(-c3ccc(Cl)cc3)cc12 (stereo not drawn) [200-73, N-[3-[5-(4-chlorophenyl)-lH-pyrrolo [2,3-b]pyridine-3-carbonyl]-2,4-difluorophenyl]-2,3-dihydroxypropane-l-sulfonamide] | < 20 µM | < 30% | < 30% | < 30% | < 30% | < 30% | > 30% | < 30% | < 30% | < 30% | < 30% | < 30% | < 30% | < 30% | < 30% | < 30% | < 30% | < 30% | < 30% | < 30% | inhibition at 0.1 µM (ABL): < 30% |
| O=C(c1c(F)ccc(NS(=O)(=O)CCCO)c1F)c1c[nH]c2ncc(-c3ccc(Cl)cc3)cc12 [200-17, N-[3-[5-(4-chlorophenyl)-1H-pyrrolo[2,3-b]pyridine-3-carbonyl]-2,4-difluorophenyl]-3-hydroxypropane-1-sulfonamide] | < 20 µM | > 50% |  | > 50% | > 50% |  | > 50% |  |  |  |  |  |  |  |  | > 50% |  |  |  |  | inhibition at 0.01 µM (LYNa; [2]): < 30%; inhibition at 1 µM (LYNa; inhibitor concentration 1 μM): > 50%; inhibition at 0.01 µM (LCK; [2]): > 30%; inhibition at 1 µM (LCK; inhibitor concentration 1 μM): > 50%; inhibition at 0.01 µM (SRC; [2]): < 30%; inhibition at 1 µM (SRC; inhibitor concentration 1 μM): > 50%; inhibition at 0.01 µM (SRM; [2]): > 30%; inhibition at 1 µM (SRM; inhibitor concentration 1 μM): > 50%; inhibition at 1 µM (ALK; inhibitor concentration 1 μM): > 50%; inhibition at 1 µM (MAP2K2; inhibitor concentration 1 μM): < 50%; inhibition at 1 µM (Erk2; inhibitor concentration 1 μM): < 50%; inhibition at 0.01 µM (KIT(V560G); [2]): < 30%; inhibition at 1 µM (KIT(V560G); inhibitor concentration 1 μM): > 50%; inhibition at 1 µM (KIT(T670I); inhibitor concentration 1 μM): < 50%; inhibition at 1 µM (EGFR; inhibitor concentration 1 μM): > 50%; inhibition at 1 µM (ABL; inhibitor concentration 1 μM): < 50% |
| CC(O)CS(=O)(=O)Nc1ccc(F)c(C(=O)c2c[nH]c3ncc(-c4ccc(Cl)cc4)cc23)c1F (centres unmarked) [200-115] |  | < 30% | < 30% | > 30% | < 30% | < 30% | > 30% | < 30% | < 30% | < 30% | < 30% | < 30% | < 30% | < 30% | < 30% | < 30% | < 30% | < 30% | < 30% | < 30% | inhibition at 0.1 µM (ABL): < 30% |
| C/C=C/S(=O)(=O)Nc1ccc(F)c(C(=O)c2c[nH]c3ncc(-c4ccc(Cl)cc4)cc23)c1F [200-93b] | < 20 µM |  |  |  |  |  |  |  |  |  |  |  |  |  |  |  |  |  |  |  | LCK inhibition (LCK; [3]): >20%; SRC inhibition (SRC; [3]): <20%; SRM inhibition (SRM; [3]): >20%; KIT(V560G) inhibition (KIT(V560G); [3]): <20%; KIT(T670I) inhibition (KIT(T670I); [3]): <20% |
| CC(=O)CS(=O)(=O)Nc1ccc(F)c(C(=O)c2c[nH]c3ncc(-c4ccc(Cl)cc4)cc23)c1F [200-117] |  | > 30% | < 30% | > 30% | < 30% | < 30% | > 30% | < 30% | < 30% | < 30% | < 30% | < 30% | < 30% | < 30% | < 30% | < 30% | < 30% | < 30% | < 30% | < 30% | inhibition at 0.1 µM (ABL): < 30% |

— patent publication US10106538B2, “Inhibitors of protein kinases” (PRINCETON DRUG DISCOVERY INC, priority 2015, dated 2018)
